Experimental data from ChEMBL document CHEMBL1154064, “Synthesis and DNA cleavage activity of 2-hydrazinyl-1,4,5,6-tetrahydropyrimidine containing hydroxy group” (2009).

Experiments:
Type in all cases: nucleic-acid assay
Nucleic Acid [1] = assay: Binding affinity to Escherichia coli pUC19 DNA assessed as form 1 DNA level at 0.463 mM after 25.35 hrs by agarose gel electrophoresis
Nucleic Acid [2] = assay: Binding affinity to Escherichia coli pUC19 DNA assessed as form 2 DNA level at 0.698 mM after 8.45 hrs by agarose gel electrophoresis
Nucleic Acid [3] = assay: Binding affinity to Escherichia coli pUC19 DNA assessed as form 2 DNA level at 0.349 mM after 26.15 hrs by agarose gel electrophoresis
Nucleic Acid [4] = assay: Binding affinity to Escherichia coli pUC19 DNA assessed as form 2 DNA level at 0.349 mM after 11.33 hrs by agarose gel electrophoresis
Nucleic Acid [5] = assay: Binding affinity to Escherichia coli pUC19 DNA assessed as form 2 DNA level at 0.463 mM after 4.95 hrs by agarose gel electrophoresis
Nucleic Acid [6] = assay: Binding affinity to Escherichia coli pUC19 DNA assessed as form 1 DNA level at 0.130 mM after 8.08 hrs by agarose gel electrophoresis
Nucleic Acid [7] = assay: Binding affinity to Escherichia coli pUC19 DNA assessed as form 2 DNA level at 0.349 mM by agarose gel electrophoresis
Nucleic Acid [8] = assay: Binding affinity to Escherichia coli pUC19 DNA assessed as form 1 DNA level at 0.698 mM after 6.42 hrs by agarose gel electrophoresis
Nucleic Acid [9] = assay: Binding affinity to Escherichia coli pUC19 DNA assessed as form 1 DNA level at 0.262 mM after 27.07 hrs by agarose gel electrophoresis
Nucleic Acid [10] = assay: Binding affinity to Escherichia coli pUC19 DNA assessed as form 1 DNA level at 0.320 mM after 4.95 hrs by agarose gel electrophoresis
Nucleic Acid [11] = assay: Binding affinity to Escherichia coli pUC19 DNA assessed as form 2 DNA level at 0.175 mM after 29.33 hrs by agarose gel electrophoresis
Nucleic Acid [12] = assay: Binding affinity to Escherichia coli pUC19 DNA assessed as form 1 DNA level at 0.320 mM by agarose gel electrophoresis
Nucleic Acid [13] = assay: Binding affinity to Escherichia coli pUC19 DNA assessed as form 1 DNA level at 0.130 mM after 23.52 hrs by agarose gel electrophoresis
Nucleic Acid [14] = assay: Binding affinity to Escherichia coli pUC19 DNA assessed as form 2 DNA level at 0.320 mM after 25.35 hrs by agarose gel electrophoresis
Nucleic Acid [15] = assay: Binding affinity to Escherichia coli pUC19 DNA assessed as form 2 DNA level at 0.175 mM after 9.07 hrs by agarose gel electrophoresis
Nucleic Acid [16] = assay: Binding affinity to Escherichia coli pUC19 DNA assessed as form 2 DNA level at 0.349 mM after 28.18 hrs by agarose gel electrophoresis
Nucleic Acid [17] = assay: Binding affinity to Escherichia coli pUC19 DNA assessed as form 2 DNA level at 0.262 mM after 23.02 hrs by agarose gel electrophoresis
Nucleic Acid [18] = assay: Binding affinity to Escherichia coli pUC19 DNA assessed as form 1 DNA level at 0.463 mM after 13.07 hrs by agarose gel electrophoresis
Nucleic Acid [19] = assay: Binding affinity to Escherichia coli pUC19 DNA assessed as form 1 DNA level at 0.262 mM by agarose gel electrophoresis
Nucleic Acid [20] = assay: Binding affinity to Escherichia coli pUC19 DNA assessed as form 2 DNA level at 0.130 mM after 14 hrs by agarose gel electrophoresis
Nucleic Acid [21] = assay: Binding affinity to Escherichia coli pUC19 DNA assessed as form 2 DNA level at 0.262 mM after 28.18 hrs by agarose gel electrophoresis
Nucleic Acid [22] = assay: Binding affinity to Escherichia coli pUC19 DNA assessed as form 2 DNA level at 0.349 mM after 24.08 hrs by agarose gel electrophoresis
Nucleic Acid [23] = assay: Binding affinity to Escherichia coli pUC19 DNA assessed as form 2 DNA level at 0.320 mM after 27.33 hrs by agarose gel electrophoresis
Nucleic Acid [24] = assay: Binding affinity to Escherichia coli pUC19 DNA assessed as form 2 DNA level at 0.130 mM after 23.52 hrs by agarose gel electrophoresis
Nucleic Acid [25] = assay: Binding affinity to Escherichia coli pUC19 DNA assessed as form 2 DNA level at 0.130 mM after 11.30 hrs by agarose gel electrophoresis

An Activity (Nucleic Acid [1]) of 60.2%, an Activity (Nucleic Acid [2]) of 15.2% and an Activity (Nucleic Acid [3]) of 31.5% were found for Cl.Cl.NNC1=NCC(O)CN1 (stereo not given) in this work. For the same molecule, the Activity (Nucleic Acid [4]) was 9.09%, the Activity (Nucleic Acid [5]) was 7.36% and the Activity (Nucleic Acid [6]) was 83.8%. It also gave an Activity (Nucleic Acid [7]) of 2.46%, an Activity (Nucleic Acid [8]) of 86.6% and an Activity (Nucleic Acid [9]) of 84.7%. For the same molecule, the Activity (Nucleic Acid [10]) was 94%, the Activity (Nucleic Acid [11]) was 23.7% and the Activity (Nucleic Acid [12]) was 98.2%. For the same molecule, the Activity (Nucleic Acid [13]) was 74%, the Activity (Nucleic Acid [14]) was 69.8% and the Activity (Nucleic Acid [15]) was 6.09%. The Activity (Nucleic Acid [16]) was 34.4%, the Activity (Nucleic Acid [17]) was 9.9% and the Activity (Nucleic Acid [18]) was 77.5%. For the same molecule, the Activity (Nucleic Acid [19]) was 97.2%, the Activity (Nucleic Acid [20]) was 24.4% and the Activity (Nucleic Acid [21]) was 15.9%. For the same molecule, the Activity (Nucleic Acid [22]) was 28.1%, the Activity (Nucleic Acid [23]) was 67.8% and the Activity (Nucleic Acid [24]) was 26%. For the same molecule, the Activity (Nucleic Acid [25]) was 21.8%.
